The test system of data set [1] is MCF7. The experiment in a line: Cytotoxicity against human MCF7 cells assessed as cell viability incubated for 72 hrs by MTT assay. It counts as functional, cell-based. As to conditions: MCF7, 72 h.
For data set [2], the system named is MDA-MB-231. Briefly: Cytotoxicity against human MDA-MB-231 cells assessed as cell viability incubated for 72 hrs by MTT assay. As to conditions: MDA-MB-231, 72 h. In kind it is functional, cell-based.
For another data set, the system named is MCF-10A. The experiment in a line: Cytotoxicity against human MCF-10A cells assessed as cell viability incubated for 72 hrs by MTT assay. In kind it is functional, cell-based.
The test system of the next data set is HepG2. The experiment in a line: Antitumor activity against human HepG2 cells incubated for 72 hrs by MTT assay. In kind it is functional, cell-based. The note with it: HepG2, 72 h.
Data set [3] has as its system MCF7. Briefly: Upregulation of Bax protein level in human MCF7 cells measured after 24 to 72 hrs by Western blot analysis. It counts as functional, cell-based. As to conditions: time 24-72 hrs.
The next data set deals with DNA. The experiment in a line: Binding affinity to DNA (unknown origin) assessed as intrinsic binding constant at 0 to 15 uM by ultraviolet-visible spectroscopic analysis. In kind it is nucleic-acid assay. The note with it: dose 0-15 µM.
Data set [4] in a line: Upregulation of Bax mRNA expression level in human MDA-MB-231 cells assessed as fold change by qRT-PCR analysis. In kind it is functional.
Data set [5] concerns MCF7. The experiment in a line: Upregulation of Bax protein level in human MCF7 cells by Western blot analysis. It counts as functional, cell-based. The note with it: time 24-72 hrs, TDE = time-dependent effect.
Data set [6] can be described thus: Selectivity index, ratio of IC50 for human MCF-10A cells to ratio of IC50 for human MDA-MB-231 cells. It counts as toxicity. As to conditions: MCF-10A cells versus MDA-MB-231 cells, read-out: Selectivity Index.
The subject of data set [7] is MDA-MB-231. The experiment in a line: Downregulation of Bcl-2 protein level in human MDA-MB-231 cells by Western blot analysis. It counts as functional, cell-based. As to conditions: time 24-72 hrs, TDE = time-dependent effect.
The test system of data set [8] is MCF7. Briefly: Downregulation of Bcl-2 protein level in human MCF7 cells by Western blot analysis. In kind it is functional, cell-based. As to conditions: time 24-72 hrs, TDE = time-dependent effect.
In data set [9] the test system is MDA-MB-231. Briefly: Induction of apoptosis in human MDA-MB-231 cells incubated for 72 hrs by Annexin V-FITC and PI staining based flow cytometry analysis. It counts as functional.
Data set [10] can be described thus: Upregulation of Bax mRNA expression level in human MCF7 cells assessed as fold change by qRT-PCR analysis. In kind it is functional.
Data set [11] has as its system MCF7. The experiment in a line: Downregulation of Bcl-2 protein level in human MCF7 cells measured after 24 to 72 hrs by Western blot analysis. As to conditions: time 24-72 hrs. In kind it is functional, cell-based.
Data set [12] can be described thus: Downregulation of Bcl-2 mRNA expression level in human MCF7 cells assessed as fold change by qRT-PCR analysis. In kind it is functional.
The subject of data set [13] is MDA-MB-231. Briefly: Upregulation of Bax protein level in human MDA-MB-231 cells by Western blot analysis. As to conditions: time 24-72 hrs, TDE = time-dependent effect. It counts as functional, cell-based.
Data set [14] can be described thus: Downregulation of Bcl-2 mRNA expression level in human MDA-MB-231 cells assessed as fold change by qRT-PCR analysis. It counts as functional.
The subject of data set [15] is MCF7. The experiment in a line: Induction of apoptosis in human MCF7 cells incubated for 72 hrs by Annexin V-FITC and PI staining based flow cytometry analysis. In kind it is functional.
The subject of data set [16] is MDA-MB-231. Briefly: Upregulation of Bax protein level in human MDA-MB-231 cells measured after 24 to 72 hrs by Western blot analysis. The note with it: time 24-72 hrs. It counts as functional, cell-based.
Data set [17] in a line: Selectivity index, ratio of IC50 for human MCF-10A cells to ratio of IC50 for human MCF-7 cells. In kind it is toxicity. As to conditions: MCF-10A cells versus MCF-7 cells, read-out: Selectivity Index.
Data set [18] in a line: Stability of compound in 100 % DMSO-d6 by 1H NMR spectroscopic analysis. In kind it is physicochemical. The note with it: 168 h, TDE = time-dependent effect, time < 7 day.
A short description of data set [19]: Stability of compound in D2O/DMSO-d6 (20:80) measured upto 1 day by 1H NMR spectroscopic analysis. It counts as physicochemical. The note with it: 24 h.
Data set [20] in a line: Stability of compound in D2O/DMSO-d6 (20:80) measured after 2 days by 1H NMR spectroscopic analysis. It counts as physicochemical. As to conditions: 48 h; time 2 day.
Data set [21] deals with MDA-MB-231. Briefly: Downregulation of Bcl-2 protein level in human MDA-MB-231 cells measured after 24 to 72 hrs by Western blot analysis. In kind it is functional, cell-based. The note with it: time 24-72 hrs.
For data set [22], the system named is MCF7. The experiment in a line: Cytotoxicity against human MCF7 cells assessed as cell viability at 100 uM incubated for 72 hrs by MTT assay relative to control. In kind it is functional. As to conditions: read-out: Activity.
The test system of data set [23] is MDA-MB-231. The experiment in a line: Cytotoxicity against human MDA-MB-231 cells assessed as cell viability at 100 uM incubated for 72 hrs by MTT assay relative to control. In kind it is functional. As to conditions: read-out: Activity.

Experimental findings from ChEMBL document CHEMBL5614403, “Efficient synthesis of novel 1,10 phenanthroline-substituted imidazolium salts: Exploring their anticancer applications” (Eur J Med Chem, 2024) are described below.

Structures are written as SMILES.

As for `Cc1c(C)c(C)c(C[n+]2ccn(-c3cc4cccnc4c4ncccc34)c2)c(C)c1C`, the IC50 worked out at 49.8 µM in the data set on MCF7 [1], 37.2 µM in the data set on MDA-MB-231 [2] and 32.4 µM in the data set on MCF-10A.
`c1ccc(-c2nc3c4cccnc4c4ncccc4c3[nH]2)cc1`: the IC50 in the data set with HepG2 is 0.68 µM.
Take `CCCCCCCCCCCC[n+]1ccn(-c2cc3cccnc3c3ncccc23)c1.[Br-]`: the Activity result in the data set with MCF7 [3] was “Dose-Dependent Effect”; with MCF7 [5], “Tde”; with MDA-MB-231 [7], “Tde”; in the data set with MCF7 [8], “Tde”; in the data set with MDA-MB-231 [9], 95%; in the data set with MCF7 [11], “Dose-Dependent Effect”. Moreover, the Activity result in the data set with MDA-MB-231 [13] is “Tde”; in the data set with MCF7 [15], 89%; in the data set on MDA-MB-231 [16], “Dose-Dependent Effect”; with MDA-MB-231 [21], “Dose-Dependent Effect”. In addition, the Kb in the data set with DNA worked out at 12600 M⁻¹. In addition, the “fold change (FC)” value in data set [4] is reported as 3.6; in [10], 3.4; in data set [12] it was 3.9; in [14] it was 4.2. In addition, the IC50 in the data set with MCF7 [1] was 15.4 µM; in the data set with MDA-MB-231 [2], 12.8 µM; in the data set on MCF-10A, 64.2 µM. Besides, the selectivity ratio turned out to be 5 in data set [6] and 4.1 in data set [17]. For the same compound, the Stability entry is listed as “Tde” in data set [18], “Stable” in data set [19] and “Unstable” in data set [20].
As to `c1ccc(C[n+]2ccn(-c3cc4cccnc4c4ncccc34)c2)cc1`, the IC50 with MCF7 [1] was found to be 52 µM; in the data set with MDA-MB-231 [2], 29.4 µM; in the data set with MCF-10A, 46.7 µM.
In the case of `CCCC[n+]1ccn(-c2cc3cccnc3c3ncccc23)c1`, the IC50 was found to be 43.4 µM in the data set on MCF7 [1], 52.6 µM with MDA-MB-231 [2] and 48.4 µM in the data set on MCF-10A. Further, the viability at 100 µM turned out to be 4.8% in the data set on MCF7 [22] and 25.2% in the data set on MDA-MB-231 [23].
On the same counts, the results for `CCCCCCCC[n+]1ccn(-c2cc3cccnc3c3ncccc23)c1` are 49.7 µM, 17.8 µM, 35.1 µM, 21.1% and 10.1%.
With `COc1cccc2c1C(=O)c1c(O)c3c(c(O)c1C2=O)C[C@@](O)(C(=O)CO)C[C@@H]3O[C@H]1C[C@H](N)[C@H](O)[C@H](C)O1` [DOXORUBICIN], the IC50 in the data set with MDA-MB-231 [2] is 4.8 µM.
For `Cc1cc(C)c(C[n+]2ccn(-c3cc4cccnc4c4ncccc34)c2)c(C)c1`, the IC50 was determined as 64.2 µM with MCF7 [1], 32.7 µM in the data set on MDA-MB-231 [2] and 35.9 µM in the data set with MCF-10A.
`c1cnc2c(c1)cc(-n1ccnc1)c1cccnc12`: the IC50 with MCF7 [1] amounted to 128 µM; in the data set with MDA-MB-231 [2], 60.7 µM; in the data set with MCF-10A it was 237 µM. Moreover, the viability at 100 µM was found to be 61.3% in the data set with MCF7 [22] and 39.7% in the data set with MDA-MB-231 [23].
